Experiment [1] concerns the target T1, Smo receptor (Homo sapiens, UniProt Q99835).
T1 construct: expressed in transfected cells; host or cells: FlpIN293 (HEK293-derived)
The experiment is described as follows: Saturation binding of Bodipy-Cyclopamine to stable Smo-FLAG transfected cell line clone 3-5. As for the experimental part: (§1) The interaction of compounds with the Smo receptor was tested by a displacement binding assay using fluorescent ligand for the Smo receptor (Bodipy-Cyclopamine, Toronto Research Chemical Inc, cat#B674800) as the labeled ligand to be displaced.
(§2) In order to determine the Kd (concentration of the ligand where 50% of the maximal binding is reached) and the Bmax (maximal amount of ligand which can bind specifically to the receptor in a biological preparation) of the fluorescent ligand, the Specific Binding (SB) was calculated by subtraction Non Specific Binding (NSB) from Total Binding (TB). The TB was determined by adding increasing concentration of Bodipy-Cyclopamine to the cells, while the NSB was determined by adding a mixture of increasing concentration of Bodipy-Cyclopamine with a saturating concentration of an well described antagonist (in this case, N-[3-(1H-benzimidazol-2-yl)-4-chlorophenyl]-3,5-dimethoxy-benzamide (Rubin et al. WO2003011219) at 10 μM was selected) to the cells. For each concentration of Bodipy-Cyclopamine, the SB was calculated by subtracting the value of NSB from TB. From the SB curve Bmax and Kd were calculated. […] The Ki is the concentration of non labeled ligand which inhibits 50% of the specific binding (SB) of the labeled ligand, and corrected for the effective used concentration of the labeled ligand. […]

Experiment [2] relates to 293FlpIN/clone E-3 mock transfected cells. The experiment is described as follows: Saturation binding of Bodipy-Cyclopamine to stable mock transfected cell line clone E-3. Also noted: species or system human. As for the experimental part: as §1, §2

pKd: −log10 of the molar value.

We go through 1 substance from patent US8592463B2, “Hedgehog pathway antagonists and therapeutic applications thereof” (Siena Biotech S.p.A., priority 2007, dated 2013).

T1 sequence (Q99835 28-787): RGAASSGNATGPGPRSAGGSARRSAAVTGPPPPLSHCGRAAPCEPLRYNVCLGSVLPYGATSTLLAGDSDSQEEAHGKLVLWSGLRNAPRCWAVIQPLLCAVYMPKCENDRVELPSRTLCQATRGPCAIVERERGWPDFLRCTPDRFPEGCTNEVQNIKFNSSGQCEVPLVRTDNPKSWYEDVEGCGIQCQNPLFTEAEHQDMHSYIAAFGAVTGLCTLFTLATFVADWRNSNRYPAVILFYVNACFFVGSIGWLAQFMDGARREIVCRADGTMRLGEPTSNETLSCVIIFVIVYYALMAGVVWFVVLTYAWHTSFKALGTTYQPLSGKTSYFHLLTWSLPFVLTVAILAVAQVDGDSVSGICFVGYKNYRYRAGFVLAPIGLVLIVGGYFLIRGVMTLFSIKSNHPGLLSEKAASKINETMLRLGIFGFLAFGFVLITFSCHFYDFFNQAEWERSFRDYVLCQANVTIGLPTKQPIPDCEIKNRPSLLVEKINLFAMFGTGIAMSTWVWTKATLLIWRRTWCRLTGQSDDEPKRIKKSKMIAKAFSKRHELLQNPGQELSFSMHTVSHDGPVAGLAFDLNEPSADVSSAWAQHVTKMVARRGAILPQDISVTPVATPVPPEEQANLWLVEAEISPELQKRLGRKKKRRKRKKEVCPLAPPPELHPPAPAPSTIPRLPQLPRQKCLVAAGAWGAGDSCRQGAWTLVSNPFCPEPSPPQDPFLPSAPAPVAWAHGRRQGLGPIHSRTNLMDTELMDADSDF

As usually defined, the pKd is the negative decadic logarithm of the Kd, by convention in mol/L. Read a low pKd as a high Kd. In the case of Bodipy-Cyclopamine, the pKd was 7.35 in experiment [1] and 6.94 in experiment [2].
